Melting point data for 91 molecules are collected here from a melting point compilation (Tetko et al.; mined from patent text by program, amines drawn as free bases though some values may be those of a salt).

In general, melting point refers to the temperature of the solid-liquid transition.

In the case of `COC(=O)c1ccc(CC(C)NCC(O)c2ccc(O)c(C)c2)cc1` (stereo unspecified), the melting point fell in the range of 103 to 107 °C.
Take `O=CCC[C@@H]1[C@@H](OCc2ccc(-c3ccccc3)cc2)CO[C@@H]1c1cccnc1`: the melting point lay within 204 to 205 °C.
To `O=S(=O)(O)NCc1cc(I)cc(I)c1O` belongs 168 to 170 °C.
`Nc1c(Cl)cc(C(O)CNCCCCCCOCCc2ccccn2)cc1Cl` (stereo unspecified): the melting point lay within 94 to 96 °C.
`O=C(c1cccnc1)c1cc(-c2cccnc2)c(N2CCOCC2)s1` had a melting point of 145 °C.
To `CS(=O)(=O)Nc1ccc2c(c1)C(=O)C(C1CCN(CCc3ccc4nonc4c3)CC1)C2` (stereo unspecified) belongs 214 to 217 °C; to `CNC(=O)Nc1cc(CNc2ncccc2C(=O)Nc2ccc3cn(C)nc3c2)ccn1`, 205 to 207 °C.
As for `CCN1C(=O)c2cccnc2N(C)c2nc(-c3ccc[nH]3)ccc21`, the melting point was 161 to 162 °C.
With `Cc1cc(C)c(-n2c(C)cc(C)c(C#N)c2=O)cc1N` the figure was 218 to 219 °C.
With `CC(Cc1c[nH]c2ccccc12)NC(=O)NCC1CCC(c2ccccc2)(N(C)C)CC1` (stereo unspecified) the figure was 140 to 146 °C; with `Cc1nc2c3c(ccc2n1C)[C@@H](O)[C@H](O)[C@@H](c1ccccc1)N3`, 225 °C.
To `OC(CCl)(Cc1ccc(Cl)cc1)c1ccc2c(c1)Cc1cc(Cl)ccc1-2` (stereo unspecified) belongs 108 °C; to `COC(=O)C(O)Cc1ccc(OCCN(C)c2nc3ccccc3o2)cc1` (stereo unspecified), 100 to 112 °C.
Regarding `CN(C)C(=O)C=Cc1ccc(C=CC(=O)N(C)C)cc1`, the melting point was found to be 247 °C.
With `C=CCNc1nc(NCC=C)nc(N2CCN(C(=O)n3ccnc3)CC2)n1` the figure was 78 to 82 °C; with `COc1cc2c3c(c1)nc(-c1ccccc1)n3CCC2=NO`, 235 to 238 °C.
With `Cc1nn(C)c(=O)n1-c1ccccc1COc1ccn(-c2ccc(Cl)cc2)n1` the figure was 107 to 108 °C; with `CCOC(=N)c1cccc(C)c1OC`, 93 to 96 °C.
To `N#Cc1ncn2c(C(F)(F)F)cc(-c3cccc(C(F)(F)F)c3)nc12` belongs 202 °C; to `c1ccc(-c2cnc(-c3ccccc3)s2)cc1`, 102 to 105 °C; to `CCOC(=O)/C=C(C)/C(F)=C/C=C(C)/C=C/c1c(C)cc(C)c(Cl)c1C`, 100 to 104 °C.
`CCOC(=O)COc1ccc(SCc2cccc3nc(-c4ccc(C(F)(F)F)cc4)oc23)cc1C`: the melting point was in the range of 180 to 182 °C.
With `CN(CCCN1C(=O)CSC1c1cc(C(C)(C)C)c(O)c(C(C)(C)C)c1)CCOc1ccc2c(c1)OCO2` (stereo unspecified) the figure was 70 to 71 °C; with `CCOC(=O)Nc1cc([N+](=O)[O-])cc(CC)c1C(=O)OCC`, 47 to 48 °C.
For the molecule `CCS(=O)(=O)c1cccc(-c2nc(=O)c3ccccc3s2)n1`, the melting point was in the range of 202 to 203 °C.
To `Cc1ccc(NC(=O)c2ccc(Br)cc2)cc1N1CCN(C)CC1` belongs 208 to 209 °C.
To `CNc1cc(Cl)c(C=O)c(Cl)c1` belongs 172 to 174 °C.
Molecule `Cc1cc(C)n2ncc(Br)c2n1` yielded a melting point of 115 to 116 °C.
On to `Sc1nnc(-c2ccc(Cl)cc2)s1`, for which the melting point turned out to be 178 °C.
For `Oc1ccc2c(-c3ccccc3F)noc2c1I`, the melting point is 212 to 214 °C.
With `O=C1NC(=O)C2c3cccc4cccc(c34)C12` (stereo unspecified) the figure was 242 to 246 °C; with `CCOC(=O)C(C)Oc1ccc(Nc2ccc(C(F)(F)F)cc2N)cc1` (stereo unspecified), 78 °C.
With `CN1C2=NCCN2C(=O)c2cc(Cl)ccc21` the figure was 200 to 202 °C.
`CCCCS(=O)(=O)Nc1ccc(Oc2cccc3c(C)ccnc23)cc1`: the melting point was 208 to 209 °C.
With `CCc1nc(C)[nH]c1Sc1ccccc1` the figure was 171 °C.
`COc1ccc2c(Nc3ccc4[nH]ccc4c3)c(C#N)cnc2c1` had a melting point greater than 250 °C.
To `Cc1oc(-c2ccccc2)nc1COc1cccc(COc2ccccc2CC(=O)O)c1` belongs 117 to 118 °C; to `O=C(Cl)[C@H](Cc1ccccc1)NS(=O)(=O)c1ccc2ccccc2c1`, 141 to 143 °C.
`Clc1ccc(Cc2nc(-c3ccccc3)nnc2NCCN2CCCCC2)cc1` displayed a melting point of 192 °C.
With `COc1cc(OC)nc(C2(C#N)OC(=O)c3c(Cl)ccc(Cl)c32)n1` (stereo unspecified) the figure was 123 to 126 °C; with `COC(=O)c1cncn1C1c2cccc(Cl)c2CC1(C)C` (stereo unspecified), 111 to 113 °C.
Turning to `CNC(=O)C(NC(=O)C(CC(C)C)C(CC(=O)OC)SC(C)=O)C(C)OCc1ccccc1` (stereo unspecified), the melting point lay in the range of 105 to 106 °C.
With `CCOCc1nc2c(N)nc3ccccc3c2n1CCCCS(=O)(=O)NC(C)C` the figure was 146 to 147 °C.
To `Cc1cn2ccc(N)c(I)c2n1` belongs 185 °C; to `CCOC(=O)c1cnoc1-c1ccc(Cl)c(Cl)c1`, 108 to 110 °C.
Turning to `COc1cc(C(C)C)c2c(c1)S(=O)(=O)N(COC(=O)c1cccs1)C2=O`, the melting point fell in the range of 139 to 141 °C.
To `CSC(=CC(=O)C(F)(F)F)NCc1ccc(Cl)nc1` belongs 112 °C.
As for `Oc1cc(C(F)(F)F)ccc1-c1cc(Oc2ccc3cccnc3c2)ncn1`, the melting point lay within 210 to 212 °C.
To `C=CCn1c2c(c3cc(OCc4ccc5ccccc5n4)ccc31)CCCC2CC(=O)O` (stereo unspecified) belongs 150 °C; to `CCOC(=O)Cc1c(C(=O)OCC)c(CC)cn1C`, 65 to 67 °C; to `Cc1cc(-n2ccnc2)c2cccc(OCc3c(Cl)ccc(S(=O)(=O)N4CCC[C@H]4C(=O)N(C)CCN(C)C)c3Cl)c2n1`, 98 °C.
To `CC(C)(CS(C)(=O)=O)NC(=O)c1c(NC(=O)c2cc(C(F)(F)F)nn2-c2ncccc2Cl)c(Cl)cc2cn[nH]c12` belongs 173 to 176 °C.
To `COc1cc2c(nc1OC)c(-c1cc3c(Cl)c(F)cnc3[nH]1)cn2CCN1CCOCC1` belongs 206 °C; to `CN1CCN(Cc2c(O)c(O)c(O)c3c(=O)cc(-c4ccccc4)oc23)CC1`, 280 to 282 °C.
Regarding `CC(=O)Nc1nc(CCc2ccc(C#N)cc2)cs1`, the melting point fell in the range of 205 to 206 °C.
With `CC(=O)c1sc(-c2ccncc2)c(C)c1-c1ccncc1` the figure was 117 to 118 °C; with `Cc1sc(N2CCCCC2)nc1CCl`, 79 to 80 °C.
With `CC(C)(C(=O)O)c1ccc(C(=O)CCCN2CCC(OC(c3ccccc3)c3ccccc3)CC2)cc1` the figure was 93 to 95 °C; with `CC(C)(C)c1cccc(C(=O)Nc2ccccc2C(=O)NCCc2ncc[nH]2)c1`, 205 to 210 °C; with `c1ccc(CN2CC3OC(c4ccccc4)(C2)c2ccccc23)cc1` (stereo unspecified), 100 to 101 °C.
The molecule `C=C1c2ccccc2C(=O)N1c1ccncc1` displayed a melting point of 173 to 174 °C.
With `Cc1c2c(cc3ccc(O)cc13)-c1ccc(O)cc1CO2` the figure was 224 to 226 °C; with `CCCCNC(=O)C(c1ccccc1)c1ccccc1`, 96 °C; with `COC(=O)c1ccsc1`, 84 to 85 °C.
With `O=C(O)c1ccc2c(c1)OC(c1cccc(Cl)c1)(c1cccc(Cl)c1)O2` the figure was 166 °C.
With `CC(C)(C(=O)O)C(c1ccc(OCc2ccc3ccccc3n2)cc1)c1ccc(OCc2ccc3ccccc3n2)cc1` the figure was 124 to 127 °C.
Take `CCOC(=O)c1cn(-c2nc(F)cs2)c2nc(N3CCC(NC(=O)OC(C)(C)C)C3)ccc2c1=O` (stereo unspecified): the melting point is 233 to 234 °C.
In the case of `O=C(O)c1nc2n(n1)-c1cccnc1N(c1ccc(Cl)cc1)C2`, the melting point was 234 to 237 °C.
With `CC(C)(C)[C@@H](O)c1cccc(-c2ccc(OCCO)cc2)n1` the figure was 104 °C; with `CC(=O)OCC1OC(n2c(Cl)nc3cc(Cl)ccc32)C(OC(C)=O)C1OC(C)=O` (stereo unspecified), 98 to 100 °C; with `CC(C)(N)Cc1c[nH]c2ccc(Cl)cc12`, 156 to 158 °C.
In the case of `Cc1ncncc1C(=O)Nc1ccc(-n2nc(C3CC3)cc2C2CC2)cc1`, the melting point lay in the range of 89 to 95 °C.
To `O=C1CCN(c2ccccc2)C(=O)C1=C1SC=CS1` belongs 150 to 152 °C; to `O=C(Nc1nccs1)C(CC1CCCC1)c1ccc(Br)cc1` (stereo unspecified), 201 to 202 °C.
With `CCCCN(C)Cc1[nH]c2ccccc2c1CC1C(=O)N(c2ccccc2)N=C1C` (stereo unspecified) the figure was 180 to 200 °C; with `Cn1nc2nnsc2c1C(N)=O`, 183 to 184 °C.
With `COc1ccc2c(C(=O)O)c(OC)ccc2c1` the figure was 153 to 155 °C; with `Cc1ccc2c(c1)Sc1ccc(F)cc1C(N1CCN(CCN3CCOC3=O)CC1)C2` (stereo unspecified), 147 to 149 °C.
Regarding `CCC(=O)NCC1CN=C(c2ccccc2F)c2cc(Cl)ccc2N1` (stereo unspecified), the melting point lay in the range of 131 to 133 °C.
Regarding `N#CNc1cc(F)ccc1-c1ccccc1`, the melting point was 68 to 70 °C.
To `CCCn1c(=O)c2[nH]cnc2n(-c2ccc(Cl)cc2)c1=O` belongs 233 to 234 °C; to `O=C(Nc1ccc(-c2cccc(C(=O)O)c2)cc1)OCC1c2ccccc2-c2ccccc21`, 226 to 228 °C.
With `Nc1ncc(Cc2ccc3c(c2)CCCN3)c(N)n1` the figure was 284 to 287 °C; with `CCOc1ccc(CN2C(=O)SC(S(=O)(=O)c3ccc(C)cc3)C2=O)c(OCC)c1` (stereo unspecified), 121 to 123 °C; with `CCCCN1C(=O)c2cncnc2N(C(=O)CN2CCOCC2)c2ccccc21`, 127 to 128 °C.
For the molecule `CC(C)(C)c1nc(-c2ncn3c2COC(=O)c2ccccc2-3)no1`, the melting point fell in the range of 210 to 211 °C.
`Cc1cc(C)c2c(c1)c(-c1ccccc1Cl)c(NC(=O)Nc1c(C)cccc1C(C)C)c(=O)n2C` showed a melting point of 203 to 204 °C.
To `Cc1cc(C)c(C=O)c(O)c1` belongs 46 to 48 °C.
With `CN1C(C(=O)Nc2cccccc2=O)=C(O)c2ccccc2S1(=O)=O` the figure was 259 to 261 °C; with `COC(=O)c1c(Oc2ccccc2N)c2ccccc2n1C`, 103 to 105 °C; with `COC(=O)Cc1cc(=O)[nH]c2cc(Br)ccc12`, 208 to 210 °C.
